Here are results for 88 compounds from a melting point compilation (Tetko et al.; mined from patent text by program, amines drawn as free bases though some values may be those of a salt).

Bounds are passed on as bounds.

As usually defined, the melting point is the temperature, or range, at which the solid turns liquid.

In the case of `CCNC(=O)N(c1ccc(C(O)(C(F)(F)F)C(F)(F)F)cc1)S(C)(=O)=O`, the melting point was in the range of 161 to 164 °C.
`CN1CCN(c2cccc(Nc3cc(NC(=O)Nc4c(Cl)cccc4Cl)ncn3)c2)CC1`: the melting point was in the range of 209 to 212 °C.
`NCC(CC(=O)O)CC1CC1` (stereo not drawn) showed a melting point of 172 to 173 °C.
Compound `CCCN1CC(c2ccc(S(C)(=O)=O)cc2)=C(c2ccc(C)cc2)C1=O` had a melting point of 161 to 163 °C.
`Oc1ccc(-c2nc(-c3cccs3)c[nH]2)cc1Br` came in with a melting point of 125 to 130 °C.
On to `Clc1ccc2c(c1)Nc1ncccc1N=C2c1ccccc1`, for which the melting point fell in the range of 250 to 252 °C.
Regarding `O=C(O)c1cc(-c2ccc(Cl)cc2)n(-c2ccc(Cl)cc2Cl)n1`, the melting point was found to be 185 °C.
As for `N#Cc1cc(F)cc(-c2ccc3c(c2)C(C2CC2)(C2CC2)OC(=O)N3)c1`, the figure is 250 to 252 °C.
Turning to `CC(=NO)c1ccc(NS(C)(=O)=O)c(Oc2ccc(F)cc2F)c1`, the melting point lay within 150 to 151 °C.
Consider `O=C(Nc1ccc(-n2nc(C(F)(F)F)cc2C(F)(F)F)cc1)c1ccno1`, for which the melting point lay within 202 to 204 °C.
The compound `CNC(=O)c1ccc(C2=N[C@H]3CCCC[C@H]3c3cc(OC)c(OC)cc32)cc1` (racemic) had a melting point of 209 to 211 °C.
`Cc1cc(-c2cccc(C(F)(F)F)c2)c2ncc(OCC(F)(F)F)nc2c1`: the melting point is 114 to 117 °C.
With `COCCN(C)Cc1c(-c2ccc([N+](=O)[O-])cc2)sc2c1c(=O)n(-c1ccc3c(c1)OCO3)c(=O)n2Cc1c(F)cccc1F`, the melting point lay within 190 to 192 °C.
As for `Nc1ncccc1NCc1ccc(OCc2cccc(F)c2)cc1`, the figure is 91 to 93 °C; as for `OCC1OC(n2c(Cl)nc3cc(Cl)c(Br)cc32)C(O)C1O` (stereo not drawn), 158 to 159 °C.
`CC1N=C(c2ccccc2Cl)c2c(ccc(NC(=O)NC3CCC(O)CC3)c2Br)N(C)C1=O` (stereo not drawn): the melting point is 226 to 227 °C.
With `CCCCCCCCCCS(=O)(=O)c1ccc(O)c(C(=O)Nc2ccc(C(F)(F)F)cc2)c1`, the melting point was in the range of 155 to 157 °C.
As for `CCc1nn(C(=O)NS(=O)(=O)c2ccccc2C(=O)OC)c(=O)n1C`, the figure is 131 °C; as for `Nc1cc(OCc2ccccc2)c(OCc2ccccc2)cc1C=C(Br)Br`, 95 to 98 °C.
`Cc1ccc(NC(=O)c2nc[nH]c2C)cc1Cl` gave a melting point of 215 to 217 °C.
In turn, `CCOCC1Cc2cc(S(N)(=O)=O)c(Cl)c(Cl)c2O1` (stereo not drawn) returned a melting point of 148 to 149 °C.
As for `Cc1nc(-n2cnn(CC(=O)Nc3ccc(Cl)cc3)c2=O)sc1C(=O)NCc1cccnc1`, the figure is 255 to 256 °C; as for `NC(=O)c1ncn2c(-c3cc(Cl)ccc3Cl)ccnc12`, 230 to 234 °C; as for `Cc1nnc2n1-c1ccc(Cl)cc1C(c1ccccc1)S2` (stereo not drawn), 237 °C.
The compound `O=C(CCCCCc1ccccc1)NNC(=O)c1ccc(O)cc1` came in with a melting point of 155 to 160 °C.
`COCCc1nc2c(N)nc3ccccc3c2n1CCOCCNC(=O)c1ccccc1` yielded a melting point of 184 to 187 °C.
`COc1ccc(CCC2SC(=O)NC2=O)c2ccc(=O)n(C)c12` (stereo not drawn) registered a melting point of 222 to 224 °C.
In the case of `O=C(O)C(Oc1ccc(Cl)cc1)Oc1ccc(C2CCNc3ccccc32)cc1` (stereo not drawn), the melting point lay in the range of 152 to 155 °C.
Compound `COc1ccc(N2CCN(c3c(C)c(C)c4c(c3C)C(O)C(C)(C)O4)CC2)cc1` (stereo not drawn) yielded a melting point of 159 to 161 °C.
Consider `CC(C)(C)S(=O)(=O)N[C@H]1CC[C@H](C(=O)O)CC1`, for which the melting point is 201 to 203 °C.
For `CC1(C)[C@@H](CS(=O)(=O)c2ccc(S(C)(=O)=O)cc2)CC[C@@]1(C)NCC(=O)N1C[C@@H](F)C[C@H]1C#N`, the melting point lay within 163 to 166 °C.
The compound `CCCCCCCCN(CCCCCCCC)c1nc(Nc2ccc3nc(S)sc3c2)nc(N(CCCCCCCC)CCCCCCCC)n1` displayed a melting point of 81 to 83 °C.
On to `CCOC(=O)CSc1nc(Cl)cc(Nc2ccc(F)cc2)n1`, for which the melting point was 97 to 102 °C.
`CC(NC(=O)CSC(=O)c1ccccc1)C(=O)NCC(=O)NCC(=O)O` (stereo not drawn) yielded a melting point of 167 to 170 °C.
Regarding `CCOC(=O)c1sc2cc(OCc3cccnc3)ccc2c1S(=O)(=O)c1ccccc1`, the melting point lay within 120 to 122 °C.
On to `Cn1nc2nc(-c3ccc(N)c(C#N)c3)cc(C(F)(F)F)c2c1-c1ccccc1`, for which the melting point is 295 °C.
Turning to `CCCOc1ccccc1-c1nc2nc(OC)ncc2c(=O)[nH]1`, the melting point is 231 °C.
As for `CNCCc1ccc(-c2ccc(OC(C)C(O)CCc3cccnc3)cc2)cc1` (stereo not drawn), the figure is 113 to 114 °C; as for `COC=C(C(=O)OC)c1ccc(CC(=O)O)cc1`, 81 to 84 °C; as for `CCCCC1c2sccc2CCN1CCCOc1ccc([N+](=O)[O-])cc1` (stereo not drawn), 72 to 75 °C.
As for `CC(=O)OCCn1c([N+](=O)[O-])cnc1C`, the figure is 143 to 145 °C.
For the compound `Cc1csc2nc(Sc3ccccc3NC(=O)N[C@@H](Cc3ccc(NC(=O)c4c(Cl)cncc4Cl)cc3)C(=O)O)cnc12`, the melting point is 193 °C.
`CCSc1c(Cl)nc(Cl)nc1Cl` showed a melting point of 62 to 64 °C.
In turn, `Cc1nc(-c2ccc(C(=O)c3ccccc3)cc2)sc1C(=O)O` gave a melting point of 217 to 218 °C.
`COc1cc(C)ccc1S(=O)(=O)NC(=O)C(c1ccc2c(c1)OCO2)c1cn(C)c2cc(C(=O)O)ccc12` (stereo not drawn): the melting point was found to be 199 °C.
Regarding `CCCCCCCCCCOc1ccc(C(=NO)c2cccc(C(=O)O)c2)cc1CCC(=O)O`, the melting point is 163 to 165 °C.
For the compound `O=C(O)/C(=C\c1cc(-c2ccc3c(c2)OCO3)n(-c2cc(Cl)ccc2Cl)n1)c1cccc(Cl)c1`, the melting point came out at 174 °C.
Compound `N[C@@H](Cc1ccccc1)[C@@H](O)C(F)(F)C(=O)NCc1ccccc1` had a melting point of 128 to 130 °C.
As for `CC(C(=O)O)c1ccc(C(C)(C)C)cc1` (stereo not drawn), the figure is 101 to 103 °C.
Compound `CCOC(=O)c1ncn2c(-c3cccnc3)ccnc12` registered a melting point of 184 to 186 °C.
As for `Cn1c(=O)cc(C(F)(F)F)[nH]c1=O`, the figure is 235 to 237 °C.
In turn, `Nc1ccc2c(ccn2C(=O)c2ccc(F)cc2)c1` gave a melting point of 205 to 207 °C.
On to `CC(C)C[C@H](NC(=O)c1ccc2c(c1)Nc1ccccc1S2)C(=O)N[C@H]1CCOC1OC(=O)c1ccccc1` (stereo partly drawn), for which the melting point lay in the range of 193 to 195 °C.
In the case of `CC(Cn1ncnn1)n1nnc2cc3c(cc2c1=O)OC1COCCN1C3=O` (stereo not drawn), the melting point was in the range of 188 to 190 °C.
`CCOc1c(CC)ccnc1C(=O)c1[nH]c2cc(Cl)ccc2c1CC(=O)O` registered a melting point of 165 °C.
In turn, `CC1SC(=O)NN=C1c1ccc2c(c1)C(=NNC(N)=S)C(=O)N2` (stereo not drawn) yielded a melting point of 300 °C.
As for `COc1cc(CCCC2SC(=O)NC2=O)ccc1OCc1csc(CCc2ccccc2)n1` (stereo not drawn), the figure is 104 to 105 °C; as for `CSN(C)C(=O)Nc1ccc(Cl)c(Cl)c1`, 93 °C; as for `CNC(=O)c1cc2[nH]cnc2c(Cl)c1NC(=O)c1cc(C(F)(F)F)nn1-c1ncccc1Cl`, 190 to 192 °C.
As to `COc1cccc(NC(=O)c2cc(-c3ccc(F)cc3F)ccc2O)c1`, the melting point lay in the range of 187 to 188 °C.
`N#Cc1ccc(N2CCC(O)CC2)c2ccccc12` came in with a melting point of 126 to 127 °C.
As for `COc1cccc(C(=O)c2ccc([N+](=O)[O-])c(C=O)c2)c1`, the figure is 84 °C; as for `CC1N(C(=O)c2ccc(OCC(F)(F)C(F)F)cc2)CC(=O)OC1(Cn1cncn1)c1ccc(Cl)cc1Cl` (stereo not drawn), 88 to 94 °C; as for `O=C(O)CCc1cnoc1-c1ccc(Br)cc1`, 164 to 165 °C.
In turn, `O=C(O)CCc1cc2nc(Cl)ccc2n1S(=O)(=O)c1ccc2c(c1)CCN2` registered a melting point of 79 °C.
In the case of `O=C(O)CCc1cn(Cc2ccc(OCc3cccs3)cc2)cc1-c1ccccc1`, the melting point was 127 to 128 °C.
Turning to `COc1cc(C(=O)CCCc2ccccc2)cc([N+](=O)[O-])c1O`, the melting point lay within 120 to 121 °C.
In turn, `CCCn1c(=O)c2[nH]c(C3CCC(=O)C3)nc2n(CCC)c1=O` (stereo not drawn) came in with a melting point of 147 to 148 °C.
As for `CC(CNc1ccc(C(=O)O)cc1)Oc1ccccc1` (stereo not drawn), the figure is 140 to 144 °C; as for `COc1ccc2c(n1)C1(CO2)C(=O)N(Cc2ncc(Cl)n2C)c2ccccc21` (stereo not drawn), 169 to 171 °C; as for `CC1(c2ccccc2)Cc2cc(OCC(=O)O)c(Cl)c(Cl)c2C1O` (stereo not drawn), 160 to 162 °C.
As to `Cc1ccccc1NCN1C(=O)CSC1=O`, the melting point was 109 to 111 °C.
The compound `CC1(C)CC(CCn2c(=O)[nH]c3ncc(-c4ccc(O)cc4)nc32)CCO1` (stereo not drawn) had a melting point of 232 to 234 °C.
Compound `Cc1nn(C)c2nc3ccccc3c(NCc3ccccc3)c12` showed a melting point of 105 °C.
`CC(=O)Nc1ccc(OC2SCC(O)C(O)C2O)cn1` (stereo not drawn) came in with a melting point of 209 °C.
As for `CC1(C)CCC(C)(C)c2cc(-c3cc(I)ccc3-c3ccccc3)ccc21`, the figure is 120 to 122 °C; as for `O=C(Nc1cc2ncc(CN3CCCC3)cc2cc1F)c1ccc(Br)cc1`, 119 to 121 °C.
The compound `CC(=O)Oc1ccc(C2CCC(=O)CC2)cc1` registered a melting point of 104 to 106 °C.
In the case of `CCCCCCCCSc1nc(SCCCCCCCC)nc(-c2cc(C)c(O)c(C)c2)n1`, the melting point is 75 to 76 °C.
`CNC(=S)N1CCc2[nH]cnc2C1c1cccs1` (stereo not drawn) gave a melting point of 215 °C.
Take `COCn1cnc(-c2ccc(OC)cc2)c1-c1ccc(OC)cc1`: the melting point fell in the range of 99 to 101 °C.
`O=C(Cc1ccc2c(c1)Cc1c-2[nH]c(=O)c2nccn12)NCc1ccccc1`: the melting point is > 260 °C.
`CCCCCCC[C@H]1CC[C@H](COc2ccc(O)cc2)CC1` gave a melting point of 107 to 108 °C.
In turn, `CO/C=C1/C(=O)NC(=O)c2ccc(-n3cccc3)cc21` gave a melting point of 272 to 273 °C.
As for `CCOc1cc2ncc(C#N)c(Nc3ccc4c(c3)OCO4)c2cc1OCC`, the figure is 200 to 203 °C.
As for `COc1ccc2c(=O)nc(-c3cccc(CCC(=O)OC(C)(C)C)n3)sc2c1`, the figure is 134 to 135 °C; as for `Cc1cc(C)c(-c2c(OCOCC(C)C)oc(-c3ccsc3)c(C)c2=O)c(C)c1`, 102 to 104 °C.
As for `CC1(C)CNC(=Nc2ccccc2)S1`, the figure is 153 to 155 °C.
